This data set is described as follows: solvent given as SMILES.

The source of these data is the Deep4Chem optical property database.

For the compound `CN(C)c1nc(N(C)C)c2nc(C#N)n(Cc3ccccc3)c2n1`, the absorption maximum was found to be 345 nm (in C1COCCO1), 344 nm (in CC#N), 342 nm (in CO) and 348 nm (in ClCCl).
On to `Fc1cccc(C2=Cc3ccc4ccccc4[n+]3[B-](F)(F)O2)c1`, for which, where the note is “in ClC(Cl)Cl”, the absorption maximum is on record as 425 nm.
`CC1=C(c2ccccc2)C(C)=[N+]2C1=C(c1c(-c3ccccn3)nc3ccccn13)c1c(C)c(-c3ccccc3)c(C)n1[B-]2(F)F` yielded an absorption maximum (in ClCCl) of 548 nm.
The compound `O=c1cc(-c2nc3ccccn3c2NC2CCCCC2)occ1OCc1ccccc1` returned an absorption maximum (in ClCCl) of 357 nm.
Turning to `O=C(O)C1=CC(=C/C=[N+]2/c3cc(O)c(C[C@@H]4O[C@H](CO)[C@@H](O)C(O)[C@H]4O)cc3C[C@H]2C(=O)O)C=C(C(=O)O)N1` (stereo partly drawn), the absorption maximum (in CO) is recorded as 467 nm, the absorption maximum (in O) came to 468 nm, the absorption maximum (in OCCO) came out at 476 nm and the absorption maximum (in [2H]O[2H]) came to 468 nm.
On to `COc1ccc(-c2nnc(-c3cc(-c4nnc(-c5ccc(OC)cc5)o4)c(-n4c5ccccc5c5ccccc54)cc3-n3c4ccccc4c4ccccc43)o2)cc1`, for which the absorption maximum (in Cc1ccccc1) is 371 nm.
As to `O=c1oc2ccccc2c2c1c(=O)oc1cc(O)ccc12`, the absorption maximum is, setting by setting: (in CS(C)=O) 376 nm; (in ClCCl) 374 nm.
As to `CN(C)c1ccc(/C=C/c2nc3ccccc3o2)cc1`, the absorption maximum is on record as 380 nm (in C1CCCCC1) and 390 nm (in CO).
As to `c1ccc(-c2nc(-c3cccc4ccccc34)n3ccccc23)cc1`, the absorption maximum was 362 nm (in C1CCCCC1); 355 nm (in CC#N); 350 nm (in CO); 357 nm (in ClCCl); 367 nm (in O).
For the setting “in C1CCOC1”, `CC1=CC2=C3C(=C4C(C)=C(c5ccc(-c6nc(-c7ccccc7)c(-c7ccccc7)[nH]6)cc5)S[C@@]4(C)[C@]2(C)S1)C(F)(F)C(F)(F)C3(F)F` showed an absorption maximum of 546 nm.
In the case of `CC1(C)c2ccccc2N(c2cccc(S(=O)(=O)c3cccc(N4c5ccccc5C(C)(C)c5ccccc54)c3)c2)c2ccccc21`, the absorption maximum (in C1CCOC1) is given as 281 nm, the absorption maximum (in Cc1ccccc1) was determined as 301 nm and the absorption maximum (in ClC(Cl)Cl) came to 287 nm.
For the compound `CCCCCCCCCCc1cc(-c2cc(CCCCCCCCCC)c(-c3cccs3)s2)sc1-c1cccs1`, the absorption maximum (in CCCCCCCCCCCCCC) is 380 nm.
For the compound `O=C(c1ccncc1)c1ccc(-n2c3ccccc3c3ccccc32)cc1`, the absorption maximum runs as follows: (in C1CCOC1) 353.15 nm; (in CCCCCC) 354.95 nm; (in Cc1ccccc1) 359 nm; (in ClCCl) 359.23 nm.
For `CCC1=C(C)C2=Cc3ccccc3B(O)N2C1=O`, the absorption maximum is reported as 358 nm (in CC#N); 378 nm (in CCCCCC); 359 nm (in CO); 361 nm (in CS(C)=O); 362 nm (in ClC(Cl)Cl).
As to `CCC1=C(C)C2=Cc3c4ccccc4c4n3[B-](c3ccccc3)(Oc3ccccc3-4)[N+]2=C1C` (stereo not drawn), the absorption maximum runs as follows: (in CC#N) 621 nm; (in CCCCCC) 625 nm; (in Cc1ccccc1) 629 nm; (in ClCCl) 627 nm.
As to `CCN(CC)c1ccc2cc(/C=C(\C#N)c3nc4ccccc4s3)c(=O)oc2c1`, the absorption maximum worked out at 498 nm (in C1COCCO1); 506 nm (in CC#N); 511 nm (in CCO); 504 nm (in CCOC(C)=O); 528 nm (in CN(C)C=O); 512 nm (in CO). Further, the absorption maximum (in CS(C)=O) was 525 nm, the absorption maximum (in Cc1ccccc1) worked out at 501 nm and the absorption maximum (in ClCCl) came to 509 nm.
With `C(=C\c1cc(/C=C/c2ccc(N(c3ccccc3)c3ccccc3)cc2)nc(/C=C/c2ccc(N(c3ccccc3)c3ccccc3)cc2)n1)/c1ccc(N(c2ccccc2)c2ccccc2)cc1`, for the setting “in ClCCl”, the absorption maximum is recorded as 415 nm.
`CC[N+]1(CC)CN2C(=N1)C(C(=O)O)=Cc1c(OC)ccc(OC)c12` returned an absorption maximum (in O) of 368 nm.
Under “in CCO”, `N#CC1=c2cc3c4c(c2Oc2c1cc1c5c2CCCN5CCC1)CCC[N+]=4CCC3` showed an absorption maximum of 682 nm.
`CSc1ccc(-c2nc3sc4ccccc4c3s2)cc1` registered an absorption maximum (in CS(C)=O) of 365 nm.
`COC(=O)c1ccc(C#Cc2ccc(N(C)C)cc2)cc1`: the absorption maximum is, setting by setting: (in C1CCCCC1) 359.51 nm; (in C1CCOC1) 361.89 nm; (in C1COCCO1) 360.5 nm; (in CC1CCCO1) 354.5 nm; (in CC#N) 360.5 nm; (in CC(C)=O) 362 nm. Also, the absorption maximum (in CC(C)CC(C)(C)C) is on record as 364.5 nm; the absorption maximum (in CC(C)O) is reported as 360.5 nm; the absorption maximum (in CCCCCCCCCCCCCCCC) came out at 365.5 nm; the absorption maximum (in CCCCCCCCCCCCCCCCCl) was 370.49 nm; the absorption maximum (in CCOC(C)=O) was found to be 357 nm; the absorption maximum (in CCOCC) came to 354.5 nm. Besides, the absorption maximum reads like this: (in CN(C)C=O) 367.5 nm; (in CO) 359 nm; (in CS(C)=O) 370 nm; (in Cc1ccccc1) 369.49 nm.
Compound `O=C1C=C(Nc2ccccc2)CCC1` displayed an absorption maximum (in C1CCCCC1) of 295 nm; an absorption maximum (in C1CCOC1) of 302 nm; an absorption maximum (in C1COCCO1) of 302 nm; an absorption maximum (in CC1CCCCC1) of 295 nm; an absorption maximum (in CC#N) of 307 nm; an absorption maximum (in CC(C)O) of 307 nm. Also, the absorption maximum by setting is: (in CCO) 307 nm; (in CCOC(C)=O) 301 nm; (in CCOCC) 296 nm; (in CN(C)C=O) 306 nm; (in CO) 305 nm; (in CS(C)=O) 307 nm. The same compound gave an absorption maximum (in ClC(Cl)(Cl)Cl) of 299 nm, an absorption maximum (in ClC(Cl)Cl) of 303 nm and an absorption maximum (in O) of 306 nm.
In turn, `Cc1cc(C)c(B(c2ccc3c(c2)c2cc(B(c4c(C)cc(C)cc4C)c4c(C)cc(C)cc4C)ccc2n3-c2ccc(C(=C(c3ccccc3)c3ccccc3)c3ccccc3)cc2)c2c(C)cc(C)cc2C)c(C)c1` displayed an absorption maximum (in C1CCOC1) of 358 nm.
For `CC(C)(C)c1ccc2c(c1)c1cc(C(C)(C)C)ccc1n2-c1cccc(-n2c3ccc(C(C)(C)C)cc3c3cc(C(C)(C)C)ccc32)c1C#N`, the absorption maximum (in Cc1ccccc1) worked out at 367 nm.
Under “in ClC(Cl)Cl”, `CC(C)(C)c1ccc(-c2cc3c4c(c2)CCc2cc(-c5ccc(C(C)(C)C)cc5)cc(c2-4)CC3)cc1` yielded an absorption maximum of 329.71 nm.
As for `CCN(CC)c1ccc(/C=C2\CC/C(=C\c3ccc(N(c4ccccc4)c4ccccc4)cc3)C2=C(C#N)C#N)cc1`, the absorption maximum (in CN(C)C=O) came out at 579 nm.
Where the note is “in C1CCOC1”, `CC1(C)c2ccccc2-c2ccc(N(c3ccccc3)c3ccc4c(c3)C(C)(C)c3cc(-c5cc6ccccc6c6c5oc5ccccc56)ccc3-4)cc21` showed an absorption maximum of 382 nm.
For `CCCCCCCCCCCCCCCCCCN1C(=O)c2cccc3c(OCCN(C)C)ccc(c23)C1=O`, the absorption maximum is, setting by setting: (in CC#N) 363 nm; (in CC(C)=O) 362 nm; (in CCO) 362 nm; (in CCOC(C)=O) 363 nm; (in CCOCC) 359 nm; (in CN(C)C=O) 364 nm. The same compound gave an absorption maximum (in ClCCl) of 363 nm.
With `F[B-]1(F)N(c2ccccc2)c2cccc3ccc4ccc[n+]1c4c23`, for the setting “in ClCCl”, the absorption maximum came out at 465 nm.
Same read-out and setting: the same measure for `CC(C)(C)c1ccc(C#Cc2c(C#Cc3ccc(C(C)(C)C)cc3)c3cccc4c(C#Cc5ccc(C(C)(C)C)cc5)c(C#Cc5ccc(C(C)(C)C)cc5)c5cccc2c5c34)cc1`: 410 nm.
For `C/C(=N\Nc1ccc(C#N)cc1)c1ccccn1`, the absorption maximum is 342 nm (in CC#N); 347 nm (in CCCCCC); 364 nm (in CO); 351 nm (in CS(C)=O); 343 nm (in ClC(Cl)Cl).
Compound `CC1=[N+]2C(=C(C3=CC4OCCOCCOCCOCCOC4C=C3)c3c4ccccc4c(/C=C/c4ccc(N(C)C)cc4)n3[B-]2(F)F)c2ccccc21` (stereo not drawn) displayed an absorption maximum (in CC#N) of 693 nm.
On to `CC(C)C1=c2c(c3[nH]cc(C(C)C)c3c3ccccc23)=[N+]2C1=Cc1c(C(C)C)c3c4ccccc4c4c(C(C)C)c[nH]c4c3n1[B-]2(F)F`, for which the absorption maximum (in ClC(Cl)Cl) amounted to 727 nm.
Regarding `COc1ccc(-c2cc(-c3ccc(N(C)C)cc3)nc(-c3ccccc3)n2)cc1`, the absorption maximum (in ClC(Cl)Cl) came to 365 nm.
Regarding `CCN(CC)c1ccc(-c2ccc(-c3nc(N4CCOCC4)c4ccccc4n3)s2)cc1`, the absorption maximum is 401 nm (in CC#N) and 405 nm (in Cc1ccccc1).
Consider `CC1(C)C(/C=C/C2=C(c3ccc(C(=O)O)cc3)C(=C/C=C3/N(CCCS(=O)(=O)[O-])c4ccc5ccccc5c4C3(C)C)/CCC2)=[N+](CCCS(=O)(=O)[O-])c2ccc3ccccc3c21`, for which the absorption maximum (in CO) is listed as 800 nm.
In turn, `CCCCCCCCn1c(=O)c2cc3c(C#Cc4ccc(N(c5ccccc5)c5ccccc5)cc4)c4cc5c(=O)n(CCCCCCCC)c(=O)c5cc4c(C#Cc4ccc(N(c5ccccc5)c5ccccc5)cc4)c3cc2c1=O` gave an absorption maximum (in ClC(Cl)Cl) of 582 nm.
The compound `c1ccc2c(-c3cc4c(ccc5sc(-c6cccc7ccccc67)cc54)s3)cccc2c1` returned an absorption maximum (in ClCCl) of 333 nm.
For the compound `Cc1cc2ccc(-c3cccc4cccc(-c5ccc6cc(C)c(=O)oc6c5)c34)cc2oc1=O`, the absorption maximum by setting is: (in C1CCCCC1) 324 nm; (in C1COCCO1) 324 nm; (in CC#N) 326 nm; (in CCO) 328 nm; (in CCOC(C)=O) 325 nm; (in CN(C)C=O) 326 nm. Also, the absorption maximum (in CO) stood at 328 nm and the absorption maximum (in c1ccccc1) was 324 nm.
